Measured values as given in patent US20220062258A1, “Heterocyclic derivatives” (Merck Patent GmbH, priority 2019, published 2022).

Target: MetAP-2 (Homo sapiens, UniProt P50579)
Test: Degradation of MetAP-2 in HCT116 cells (Western blot, MetAp2/GAPDH signal)
Format: cell-based
Set-up: endogenous in cells; host or cells: HCT116
Details: for Signal MetAp2/GAPDH normalized to untreated (DMSO): 24 hrs, HTC116 cells, <1 means degradation; for reduction of MetAP-2 protein: after 24 h
Method: See scans below. […] The initial MetAP-2 degradation results were obtained after 24 h incubation of the compounds in three different concentrations (0.1; 1; 10 μM), cell lysis, SDS-PAGE separation, blotting and antibody aided detection.
Comparison of MetAP2 protein levels in HTC116 cells after compound treatments at different concentrations and time points. As control, DMSO was used and its values set as “1”. MetAp2 values <1 means degradation.
2. Exemplary Testing of the Compound
HCT116 cells were sown in 6-well plates. Pipette 1 mL fresh medium to every well and incubate for at least 1 h (37° C., 5% CO2, 95% rH).
Harvest and count cells in Vi-Cell. Equinr. 70198475 Adjust cell concentration to 0.35e^6 cells/mL and add 1 mL of cell suspension (total 0,35e^6 cells/well).
Incubate cells for 24 hours (37° C., 5% CO2, 95% rH)
HCT116: 24 h: ˜50% confluent before treatment
Compounds will be thawed the first time, stock: 10 mM; final concentration: 10 μM & 1 μM & 0.1 μM
Treatment with DMSO based solution with Digital Dispenser: HCT116 platte 2A1.jpg_meta.xml • create new dispensing protocol for compound • apply name of test compound and its stock concentration (in mM) for testing • 3×1:10 dilution series • final 0.3% DMSO, DMSO normalization for every well • shaking after compound/DMSO addition
Incubate cells for further 24 hours (37° C., 5% C02, 95% rH)
HCT116: 70-80% confluent before lysis • after incubation cells were lysed with RIPA lysis buffer including Halt™
all steps performed on ice or at 4° C. • aspirate supernatant from cells • wash cells twice with 2.0 mL ice cold PBS buffer • aspirate supernatant from cells after each washing step • lyse cells with 100 μL Ripa lysis buffer per well • scrape cells with cell scraper and transfer lysates to Eppendorf Cups • incubate for 15 min on ice • centrifuge […] at 13000×g and 4° C. • transfer supernatants to fresh Eppendorf cups • removal of 20 μL lysate for BCA assay • aliquot and freeze at −20° C.
Determination of protein concentration of lysates with BCA Protein Assay Kit. BSA supplied with the kit is 2 mg/mL.
Dilute the standard (Stock BSA concentration=2 mg/mL) in a 96 well plate: Samples were run 1:4. Dilute in lysing buffer, lysing buffer alone was run to determine the background from detergents in the assay.
BCA reagent: Dilute Reagent A and Reagent B in a 1:50 ratio. To 9.8 mL A add 200 μL B.
Assay Procedure: Pipette 5 μL/well of standard or samples to 96 wells (see plate layout). Samples were run in duplicate. Blanks=5 μL/well PBS or 5 μL/well lysing buffer. Add 100 μL/well of the prepared BCA reagent. Tap plate to mix or shake for 1-2 min on the Eppendorf mixer. Incubate at 37° C. for 30 min.
Read the OD at 562 nm. Plate was read on EnVision 2104 Multilabel Reader (Perkin Elmer, Equipment Number 70160330) last verification of instrument 17.08.2017 (once a year) (A25/531). AEH181012_BCA.csv
In EXCEL the duplicates were averaged and the average background PBS was subtracted for the standard curve.
A trend line was created, the intercept (b) was set at 0. The R^2 should be >0.950 for acceptable results. The lysate buffer blank was subtracted from the test values and the averaged, background-corrected O.D. values were used with the equation to calculate mg/ml and then were corrected for the dilution factor for the final mg/mL value. Only results from OD values within the range of the standard curve are acceptable. Values outside of the standard curve range are ignored. BCA AEH00350 Berechnung.xlsx
6. Sample Calculation and Preparation • thaw lysates of AEH00350 on ice • calculate sample volume for Western Blot loading 10 μg total protein/13 μL per slot: • dilute samples with lysis buffer and 10× reducing agent & 4×LDS buffer to 10 μg. • heat them at 70° C. for 10 min and 1000 rmp
7. […]

Sequence of MetAP-2 (P50579 whole entry): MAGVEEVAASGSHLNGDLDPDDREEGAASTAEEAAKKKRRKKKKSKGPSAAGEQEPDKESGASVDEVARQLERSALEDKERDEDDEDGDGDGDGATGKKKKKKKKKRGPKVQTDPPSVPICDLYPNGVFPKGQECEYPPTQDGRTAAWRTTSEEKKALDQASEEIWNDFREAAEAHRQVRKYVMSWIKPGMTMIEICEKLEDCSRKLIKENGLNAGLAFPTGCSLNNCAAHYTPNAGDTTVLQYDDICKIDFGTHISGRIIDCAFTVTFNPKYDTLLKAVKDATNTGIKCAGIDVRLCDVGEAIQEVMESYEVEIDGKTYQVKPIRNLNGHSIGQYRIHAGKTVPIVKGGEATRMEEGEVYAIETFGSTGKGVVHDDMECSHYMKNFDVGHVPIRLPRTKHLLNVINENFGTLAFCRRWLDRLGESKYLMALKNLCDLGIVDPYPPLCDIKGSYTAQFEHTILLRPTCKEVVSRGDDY

Row | Signal MetAp2/GAPDH normalized to untreated (DMSO) (0.1 μM) | Signal MetAp2/GAPDH normalized to untreated (DMSO) (1 μM) | Signal MetAp2/GAPDH normalized to untreated (DMSO) (10 μM) | reduction of MetAP-2 protein (10 μM) [%] | reduction of MetAP-2 protein (0.1 μM) [%] | Compound
1 | 1.2 | 1.0 | 0.6 | 40 | – | O=C1CCC(N2C(=O)c3ccc(NCCOCCOCCOCCOCCNC(=O)c4cc5cc(N6CCC(O)(C(=O)NCc7cc(F)cc(F)c7)C6=O)ccc5[nH]4)cc3C2=O)C(=O)N1 (stereo not drawn) [Compound A2, 5-[3-[(3,5-difluorophenyl)methylcarbamoyl]-3-hydroxy-2-oxo-pyrrolidin-1-yl]-N-[2-[2-[2-[2-[2-[[2-(2,6-dioxo-3-piperidyl)-1,3-dioxo-isoindolin-5-yl]amino]-ethoxy]ethoxy]ethoxy]ethoxy]ethyl]-1H-indole-2-carboxamide]
2 | 0.7 | 0.6 | 0.3 | 70 | 30 | O=C1CCC(N2C(=O)c3cccc(NCCOCCOCCOCCOCCOCCNC(=O)c4cc5cc(N6CCC(O)(C(=O)NCc7cc(F)cc(F)c7)C6=O)ccc5[nH]4)c3C2=O)C(=O)N1 (stereo not drawn) [Compound A1, 5-[3-[(3,5-difluorophenyl)methylcarbamoyl]-3-hydroxy-2-oxo-pyrrolidin-1-yl]-N-[2-[2-[2-[2-[2-[2-[[2-(2,6-dioxo-3-piperidyl)-1,3-dioxo-isoindolin-4-yl]amino]ethoxy]ethoxy]ethoxy]ethoxy]ethoxy]ethyl]-1H-indole-2-carboxamide]
